One may read the AUC(0-inf) as total exposure, with the tail of the curve extrapolated. By Cmax is commonly meant the highest concentration seen after dosing. By IC50 is commonly meant the concentration at which inhibition is half-maximal. For orientation: half-life means the time in which the quantity being followed falls by half.

One data set is described as follows: clinical. As to conditions: human, in vivo, 300 mg/m2.
The next data set deals with pancreatic cell lines. Put plainly: CellTiter-Glo cell viability, pancreatic cell panel. The data set is classed as cell-based. On the procedure: (§1) In vitro efficacy study was done using CellTiter-Glo® Luminescent Cell Viability Assay (Promega) with Corning Cat #3707 384well White Clear bottom plates. Cells were plated (1000 cells/well) in 384 well format and allowed to incubate @ 37 C for 24 hours. Monotherapy drugs were added at the 24 hr time point and then allowed to incubate @ 37 C for 24 hours. At the 48 hr time point the drugs in media were removed, washed with PBS, and fresh media was added. Cells were then allowed to incubate @ 37 C for 72 hours. At the 120 hr time point media was removed and CellTiter-Glo (CTG) reagent was added (1:1 ratio with PBS). Plate was read by luminometer (Envision Multilabel reader). More details of this assay can be found in Accelrys Notebook ELN as EXP-15-AC2111.
(§2) All cell lines had been adapted to and were maintained in RPMI with 10% fetal bovine serum and supplemented with penicillin/streptomycin (Invitrogen).
(§3) Data was analyzed using an in-house algorithm developed using Matlab (Mathworks, Natick MA). In summary, average CTG mean luminescent values were computed for 4 replicate wells. Outlier detection was performed by computing the coefficient of variation (CV>20%) and outliers were removed from the average. CTG values were normalized based on a control non-treated well. Drug concentration in microMolar (uM) was log transformed prior to fitting to a 4 parameter logistic curve.
(§4) Data quality control was performed to ensure that the concentration range is optimal according to these rules: (1) if the lowest concentration kills more than 70% of the cells the concentration range is deemed too potent (2) if the highest concentration kills less than 30% of the cells, the concentration range is deemed low or the cell line is too resistant. Additionally, goodness of the fit was evaluated using R^2 and R^2<0.9 is flagged as a bad fit. Statistical analysis was performed using JMP (SAS Institute Inc., NC).
(§5) Pancreatic cell lines were cultured to sub confluent state in 384 well plates prior to incubation with varying doses of SN-38 for 24 hours. Additions 72 hours of culture were performed prior to CTG assessment. Every well was run in 4 replicates, and the entire experiment was run in four different plates. The compared results from the four separate experiments show the reproducibility of the cytotoxic effects of SN-38.

Another data set deals with Aspc1. The data set can be described thus: CellTiter-Glo cell viability. The data set is classed as cell-based. The conditions noted are these: for IC50: Homo sapiens, Aspc1, 24 h exposure + 72 h recovery. On the procedure:
as §1, §2, §3, §4, §5
(In general: In ATP-based viability assays light output follows the ATP content of the culture.)

For a further data set, the system named is BxPC3. Put plainly: CellTiter-Glo cell viability. The data set is classed as cell-based. As to conditions: for IC50: Homo sapiens, BXPC-3, BxPC3, 24 h exposure + 72 h recovery. How it is done: as §1, §2, §3, §4, §5
The subject of another data set is CFPAC1. Put plainly: CellTiter-Glo cell viability. The data set is classed as cell-based. The conditions noted are these: for IC50: CFPAC1, 24 h exposure + 72 h recovery. On the procedure:
as §1, §2, §3, §4, §5

In another data set the test system is Capan-2. The data set can be described thus: CellTiter-Glo cell viability. The data set is classed as cell-based. How it is done: as §1, §2, §3, §4, §5
Another data set relates to Colo357. The data set can be described thus: CellTiter-Glo cell viability. As to conditions: for IC50: Homo sapiens, Colo357, 24 h exposure + 72 h recovery. It counts as cell-based. On the procedure:
as §1, §2, §3, §4, §5

The test system of the next data set is HPAFII. The data set can be described thus: CellTiter-Glo cell viability. It counts as cell-based. The conditions noted are these: for IC50: Homo sapiens, HPAF-II, 24 h exposure + 72 h recovery. How it is done: as §1, §2, §3, §4, §5
The next data set relates to Hs766t. The data set can be described thus: CellTiter-Glo cell viability. It counts as cell-based. As to conditions: for IC50: 24 h exposure + 72 h recovery. How it is done: as §1, §2, §3, §4, §5
In a further data set the test system is KP4. Put plainly: CellTiter-Glo cell viability. The data set is classed as cell-based. As to conditions: for IC50: Homo sapiens, KP-4, KP4, 24 h exposure + 72 h recovery. On the procedure:
as §1, §2, §3, §4, §5

The subject of the next data set is L3.3. Put plainly: CellTiter-Glo cell viability. The conditions noted are these: for IC50: L3.3, 24 h exposure + 72 h recovery. It counts as cell-based. On the procedure:
as §1, §2, §3, §4, §5

The subject of another data set is L3.6pL. Put plainly: CellTiter-Glo cell viability. As to conditions: for IC50: Homo sapiens, 24 h exposure + 72 h recovery. It counts as cell-based. How it is done: as §1, §2, §3, §4, §5
For the next data set, the system named is Miapaca2. Put plainly: CellTiter-Glo cell viability. It counts as cell-based. The conditions noted are these: for IC50: Miapaca2, 24 h exposure + 72 h recovery. How it is done:
as §1, §2, §3, §4, §5

The subject of a further data set is PL45. Put plainly: CellTiter-Glo cell viability. It counts as cell-based. The conditions noted are these: for IC50: PL45, 24 h exposure + 72 h recovery. How it is done:
as §1, §2, §3, §4, §5

Another data set deals with Panc1. Put plainly: CellTiter-Glo cell viability. It counts as cell-based. On the procedure:
as §1, §2, §3, §4, §5

In the next data set the test system is Panc6.03. The data set can be described thus: CellTiter-Glo cell viability. As to conditions: for IC50: Panc6.03, 24 h exposure + 72 h recovery. It counts as cell-based. On the procedure:
as §1, §2, §3, §4, §5

In another data set the test system is SU8686. Put plainly: CellTiter-Glo cell viability. The data set is classed as cell-based. The conditions noted are these: for IC50: Homo sapiens, SU.86.86, SU8686, 24 h exposure + 72 h recovery. On the procedure: as §1, §2, §3, §4, §5
The next data set concerns SW1990. Put plainly: CellTiter-Glo cell viability. The data set is classed as cell-based. The conditions noted are these: for IC50: Homo sapiens, SW1990, 24 h exposure + 72 h recovery. On the procedure: as §1, §2, §3, §4, §5
Data set [1] is described as follows: NAPOLI-1 observed 5-FU concentration. As to conditions: human, in vivo, intravenous; read-out: 5-FU estimated half-life after the end of infusion.
For another data set, the system named is Colorectal Cancer. As to conditions: cited from earlier work.
[2] abbreviates: n 3, read-out: IC50 Log(μM) mean (converted).
Where [3] appears, read: n 2, read-out: IC50 Log(μM) mean (converted).
The mark [4] stands for this setting: n 4, read-out: IC50 Log(μM) mean (converted).
The mark [5] stands for this setting: Kohne 2013, continuous infusion.

pIC50: −log10 of the molar value. Structures can show the parent of a compound that is named as a salt. Where two headings read alike, the source gives them in different places.

In “clinical”, `CCc1c2c(nc3ccc(OC(=O)N4CCC(N5CCCCC5)CC4)cc13)-c1cc3c(c(=O)n1C2)COC(=O)[C@]3(O)CC` [irinotecan HCl, (S)-4,11-diethyl-3,4,12,14-tetrahydro-4-hydroxy-3,14-dioxo1H-pyrano[3′,4′:6,7] indolizino[1,2-b]quinolin-9-yl-[1,4′bipiperidine]-1′-carboxylate] yielded an AUC(0-inf) of 24700 ng·h/mL and a maximum concentration (Cmax) of 4100 ng/mL.
As for `CCc1c2c(nc3ccc(O)cc13)-c1cc3c(c(=O)n1C2)COC(=O)[C@]3(O)CC` [SN-38], the “Tumor cell kill rates averaged across all cell lines” value in the data set on pancreatic cell lines worked out at 90%. Moreover, the “decrease in cell viability for most cell lines” value with pancreatic cell lines (24 h SN-38, additional 72 h culture) is “around 90%”. For the same molecule, the pIC50 was 7.00 to 12.00 with pancreatic cell lines (24 hours exposure, recovery period of 72 h, read-out: IC50 range across all pancreatic cell lines); 11.49 with CFPAC1 (Homo sapiens, CFPAC-1, CFPAC1, read-out: IC50 concentration); 11.38 in the data set with Miapaca2 (Homo sapiens, MIA PaCa-2, MiaPaCa2, read-out: IC50 concentration). The IC50 in the data set on pancreatic cell lines (basis of the uSN38 threshold, read-out: median IC50 in in-vitro pancreatic cell lines) is 0.03 ng/mL; in the data set with Aspc1 (setting [2]) it was 0.00398 µM; in the data set on Aspc1 (read-out: IC50(nM) mean), 0.00398 µM; in the data set on BxPC3 (setting [3]), 17 pM; in the data set on BxPC3 (read-out: IC50(nM) mean), 17 pM; in the data set on CFPAC1 (Homo sapiens, CFPAC-1, n 2, read-out: IC50 Log(μM) mean (converted)), 3.16 pM. Also, the IC50 with CFPAC1 (Homo sapiens, CFPAC-1, read-out: IC50(nM) mean) was 3.2 pM; in the data set with Capan-2 (Capan-2, 24 h exposure + 72 h recovery, read-out: IC50(nM) mean) it was 20.4 nM; in the data set on Capan-2 (Homo sapiens, Capan-2, Capan-2, 24 h exposure + 72 h recovery, n 3, read-out: IC50 Log(μM) mean (converted)), 20.4 nM; in the data set with Capan-2 (Homo sapiens, Capan-2, Capan-2, 24 h exposure + 72 h recovery, read-out: IC50(nM) mean) it was 20.4 nM; with Colo357 (setting [3]) it was 61.7 pM; in the data set on Colo357 (read-out: IC50(nM) mean) it was 61.7 pM. The IC50 was 0.00204 µM in the data set with HPAFII (setting [2]); 0.00204 µM in the data set with HPAFII (read-out: IC50(nM) mean); 63.1 nM in the data set on Hs766t (read-out: IC50(nM) mean); 63.1 nM in the data set on Hs766t (Hs766T, n 2, read-out: IC50 Log(μM) mean (converted)); 63.1 nM in the data set on Hs766t (Hs766T, read-out: IC50(nM) mean); 7.94 pM with KP4 (setting [3]). The IC50 is 7.9 pM in the data set on KP4 (read-out: IC50(nM) mean); 2.04 pM with L3.3 (setting [3]); 2 pM in the data set with L3.3 (read-out: IC50(nM) mean); 2.82 pM in the data set on L3.6pL (setting [3]); 2.8 pM in the data set on L3.6pL (read-out: IC50(nM) mean); 4.17 pM with Miapaca2 (Homo sapiens, MIA PaCa-2, n 3, read-out: IC50 Log(μM) mean (converted)). For the same molecule, the IC50 in the data set on Miapaca2 (Homo sapiens, MIA PaCa-2, read-out: IC50(nM) mean) is 4.2 pM; in the data set with PL45 (setting [3]), 3.55 pM; with PL45 (read-out: IC50(nM) mean) it was 3.5 pM; in the data set on Panc1 (Homo sapiens, PANC-1, Panc1, 24 h exposure + 72 h recovery, n 4, read-out: IC50 Log(μM) mean (converted)), 0.0138 µM; in the data set with Panc1 (Homo sapiens, PANC-1, Panc1, 24 h exposure + 72 h recovery, read-out: IC50(nM) mean), 0.0138 µM; in the data set with Panc1 (Panc1, 24 h exposure + 72 h recovery, read-out: IC50(nM) mean), 0.0138 µM. The IC50 in the data set with Panc6.03 (setting [4]) is 0.00115 µM; with Panc6.03 (read-out: IC50(nM) mean) it was 0.00115 µM; in the data set with SU8686 (setting [3]), 0.000692 µM; in the data set on SU8686 (read-out: IC50(nM) mean) it was 0.000692 µM; with SW1990 (setting [4]) it was 87.1 pM; in the data set on SW1990 (read-out: IC50(nM) mean), 87.1 pM. In addition, the “Tumor Cell Kill (%) mean” value came to 91.61% with Aspc1 (Aspc1); 77.37% with BxPC3 (BxPC3); 84.74% in the data set on CFPAC1 (CFPAC1); 94.61% in the data set with Capan-2 (Capan-2); 94.47% with Colo357 (Colo357); 93.24% with HPAFII. The “Tumor Cell Kill (%) mean” value is reported as 86.41% with Hs766t; 86.62% with KP4 (KP4); 93.01% in the data set with L3.3 (L3.3); 95.18% in the data set on L3.6pL; 91.23% with Miapaca2 (Miapaca2); 92.16% in the data set with PL45 (PL45). The “Tumor Cell Kill (%) mean” value in the data set on Panc1 (Panc1) worked out at 89.54%; in the data set with Panc6.03 (Panc6.03) it was 87.68%; with SU8686 (SU8686) it was 95.82%; in the data set on SW1990 (SW1990), 91.92%.
Consider `O=c1[nH]cc(F)c(=O)[nH]1` [5-FU, 5-fluorouracil], for which the half-life in [1] is 8 to 14 min. Further, the “Median OS (m)” value with Colorectal Cancer (Kohne 2013, bolus 463-531 mg/m^2/week) is listed as “nrd”; with Colorectal Cancer (Kohne 2013, continuous infusion 800-3500 mg/m^2/week, N 797), “nrd”. Also, the “OS 3 y” value was 85% in the data set on Colorectal Cancer (Kohne 2013, bolus) and 85% in the data set with Colorectal Cancer (setting [5]). Also, the “OS 5 y” value was 79% in the data set on Colorectal Cancer (Kohne 2013, bolus) and 79% in the data set on Colorectal Cancer (setting [5]). Moreover, in the data set on Colorectal Cancer (Kohne 2013 PETACC-2, BL 370-425 mg/m^2/d for 5 d q4w, N 804), the “Overall Survival HR, bolus vs continuous infusion (ref)” value is reported as 0.96. In addition, in the data set with Colorectal Cancer (meta-analysis, did not affect OS), the “OS HR across different 5-FU dose intensities and dose administrations” value is 0.96-1.11.

The values above are taken from patent US20170333421A1, “Population Pharmacokinetics of Liposomal Irinotecan” (IPSEN BIOPHARM LTD., priority 2016, published 2017).
